Patent US12213482B2, “Fungicide enhancers effective for treating plants infected with fungal pathogens” (Board of Regents, The University of Texas System, priority 2015, dated 2025)

Legend:
Sclerotiana sclerotiorum = test: Antifungal susceptibility disk test, fungicide disk plus apyrase inhibitor in plate; type: cell-based; details: inhibitor 65 μM, 30° C., 7 days; for inhibitory effect on the growth of Sclerotiana sclerotiorum compared to copper octanoate alone: combined with copper octanoate (285 mM) disk, FIG. 5A; for inhibitory effect on growth of Sclerotiana sclerotiorum compared to myclobutanil alone: combined with myclobutanil (53.6 mM) disk, FIG. 5B; for inhibitory effect on the growth of Sclerotiana sclerotiorum compared to propiconazole alone: combined with propiconazole (418 mM) disk, FIG. 5C
Method: (§1) The equivalent volume of dimethylsulphoxide (DMSO) was added as a control. The studies were repeated two times with similar results. Error bars indicate standard deviations (n=5). The significances of the potency of fungicides are indicated: *** (Student's t-test, P<0.001); **(Student's t-test, P<0.01) or *(Student's t-test, P<0.05). The plant pathogenic fungal strains Botrytis cinerea, Colletotrichum graminicola, Fusarium oxysporum, Sclerotiana sclerotiorum and Verticillium dahliae were obtained from the Institute for Plant Genomics & Biotechnology, Texas A & M University, USA Potato dextrose agar (PDA, Sigma-Aldrich) was routinely used for the growth of different pathogenic fungal strain. Ectophosphatase inhibitors NGXT191 (AI.1), AI.10, NGXT1913 (AI.13), and AI. 15 were used dal this study. The fungicides copper octanoate (C16H30CuO4), myclobutanil (C15H17ClN4) and propiconazole (C15H17Cl2N3O2) were used. The concentrations of these compounds used were copper octanoate (285 mM), myclobutanil (53.6 mM) and propiconazole (418 mM). Standard antifungal susceptibility disk tests were performed to determine any potentiating effect of ectophosphatase inhibitors on the growth of pathogenic fungus. The pathogenic fungus wild-type strains were plated on PDA medium with paper-disks containing, fungicides at the center of the plate. […] Plates were incubated at 30° C. for 7-days (C. graminicola and S. sclerotiorum) or 12-days (B. cinerea, F. oxysporum and V. dahliae), depending on the growth rate of the fungi. Plates were photographed, and the zone of fungal growth inhibition was measured by using IMAGE J™ software (NIH, USA). All the tests were performed with 5 replicates. The studies were performed two times. Results were analyzed for significance using Student T-tests.

Botrytis cinerea = test: as above; type: cell-based; details: inhibitor 65 μM, 30° C., 12 days; for inhibitory effect on the growth of B. cinerea compared to myclobutanil alone: combined with myclobutanil (53.6 mM) disk, FIG. 2B; for inhibitory effect on the growth of B. cinerea compared to propiconazole alone: combined with propiconazole (418 mM) disk, FIG. 2C
Method: as §1, with “2A. Copper Octanoate, 2B. Propiconazole, and 2C. Myclobutanil against the pathogenic fungi Botrytis cinerea. […] The equivalent” for “The equivalent”, “t-test, P<0.001); ** (Student's t-test, P<0.01)” for “t-test, P<0.001); **(Student's t-test, P<0.01)”

SMILES	inhibitory effect on the growth of Sclerotiana sclerotiorum compared to copper octanoate alone (Sclerotiana sclerotiorum)	inhibitory effect on growth of Sclerotiana sclerotiorum compared to myclobutanil alone (Sclerotiana sclerotiorum)	inhibitory effect on the growth of Sclerotiana sclerotiorum compared to propiconazole alone (Sclerotiana sclerotiorum)	inhibitory effect on the growth of B. cinerea compared to myclobutanil alone (Botrytis cinerea)	inhibitory effect on the growth of B. cinerea compared to propiconazole alone (Botrytis cinerea)
Cc1cccc(NS(=O)(=O)c2ccc(-c3ccccc3)cc2)c1 [AI.1, N-(m-tolyl)-[1,1′-biphenyl]-4-sulfonamide]	significantly greater inhibitory effect	significantly greater inhibitory effect	significantly greater inhibitory effect	significantly greater inhibitory effect	greater inhibitory effect
O=C(Nc1cccc([N+](=O)[O-])c1)c1cccc(S(=O)(=O)Nc2ccc(Br)cc2)c1 [AI.13, 3-(N-(4-bromophenyl)sulfamoyl)-N-(3-nitrophenyl)benzamide]	significantly greater inhibitory effect	significantly greater inhibitory effect	significantly greater inhibitory effect	significantly greater inhibitory effect	–
C/C(=N\NC(=O)c1cccc(C)c1)c1ccc2ccccc2c1 [AI.15, (E)-3-methyl-N′-(1-(naphthalen-2-yl)ethylidene)benzohydrazide]	significantly greater inhibitory effect	significantly greater inhibitory effect	significantly greater inhibitory effect	significantly greater inhibitory effect	greater inhibitory effect
CCCCCCCSC(=O)c1cc2ccccc2oc1=O [AI.10, S-heptyl 2-oxo-2H-chromene-3-carbothioate]	significantly greater inhibitory effect	significantly greater inhibitory effect	significantly greater inhibitory effect	–	greater inhibitory effect
